The record followed here is patent publication US10004701B2, “Methods and compositions for treating infection” (UNIVERSITY OF ROCHESTER, priority 2012, dated 2018).

Structures are written as SMILES. Structures can show the parent of a compound that is named as a salt. Where two headings read alike, the source gives them in different places.

Common to all, as to test: AK assay 384-well format, Prestwick library screening
Assay [1] has as its system S. aureus strain USA300-0114. The class given is cell-based, Staphylococcus aureus. The note with it: for fold induction at 50 µM: Staphylococcus aureus, USA300, 3 h.
Assay [2] deals with E. faecium. Format: cell-based, Enterococcus faecium. The note with it: for fold induction at 50 µM: Enterococcus faecium, 3 h.
Assay [3] has as its system E. cloacae. The class given is cell-based, Enterobacter cloacae. The note with it: for fold induction at 50 µM: Enterobacter cloacae, 3 h.
The subject of assay [4] is E. coli. The class given is cell-based, Escherichia coli. The note with it: for fold induction at 50 µM: Escherichia coli, 3 h.
The subject of assay [5] is P. aeruginosa. Format: cell-based, Pseudomonas aeruginosa. The note with it: for fold induction at 50 µM: Pseudomonas aeruginosa, 3 h.
Assay [6] concerns A. baumannii strain 98-37-09. The class given is cell-based, Acinetobacter baumannii. The note with it: for fold induction at 50 µM: Acinetobacter baumannii, 983709, 3 h.
Assay [7] relates to K. pneumoniae. The class given is cell-based, Klebsiella pneumoniae. The note with it: for fold induction at 50 µM: Klebsiella pneumoniae, 3 h.
Where [8] appears, read: 50 μM final drug concentration, 384-well format, cutoff for positive-scoring molecules 3-fold increase, read-out: AK-based Prestwick Library Screening Results, S. aureus (increase in extracellular AK activity).
[9] abbreviates: 50 μM final drug concentration, 384-well format, cutoff for positive-scoring molecules 3-fold increase, read-out: AK-based Prestwick Library Screening Results, E. faecium (increase in extracellular AK activity).
[10] abbreviates: 50 μM final drug concentration, 384-well format, cutoff for positive-scoring molecules 3-fold increase, read-out: AK-based Prestwick Library Screening Results, E. cloacae (increase in extracellular AK activity).
Setting [11] is: 50 μM final drug concentration, 384-well format, cutoff for positive-scoring molecules 3-fold increase, read-out: AK-based Prestwick Library Screening Results, E. coli (increase in extracellular AK activity).
Where [12] appears, read: 50 μM final drug concentration, 384-well format, cutoff for positive-scoring molecules 3-fold increase, read-out: AK-based Prestwick Library Screening Results, P. aeruginosa (increase in extracellular AK activity).
[13] abbreviates: 50 μM final drug concentration, 384-well format, cutoff for positive-scoring molecules 3-fold increase, read-out: AK-based Prestwick Library Screening Results, A. baumannii (increase in extracellular AK activity).
The mark [14] stands for this setting: 50 μM final drug concentration, 384-well format, cutoff for positive-scoring molecules 3-fold increase, read-out: AK-based Prestwick Library Screening Results, K. pneumoniae (increase in extracellular AK activity).

With `C[N+](C)(C)CCOC(N)=O` [Carbachol], the fold induction at 50 µM in assay [1] (50 μM final drug concentration, cutoff for positive-scoring molecules 3-fold increase, read-out: AK-based Prestwick Library Screening Results, S. aureus (fold increase in extracellular AK activity)) stood at 1.4; in assay [2] (50 μM final drug concentration, cutoff for positive-scoring molecules 3-fold increase, read-out: AK-based Prestwick Library Screening Results, E. faecium (fold increase in extracellular AK activity)), 1.1; in assay [3] (50 μM final drug concentration, cutoff for positive-scoring molecules 3-fold increase, read-out: AK-based Prestwick Library Screening Results, E. cloacae (fold increase in extracellular AK activity)) it was 1.2; in assay [4] (50 μM final drug concentration, cutoff for positive-scoring molecules 3-fold increase, read-out: AK-based Prestwick Library Screening Results, E. coli (fold increase in extracellular AK activity)) it was 1.2; in assay [5] (50 μM final drug concentration, cutoff for positive-scoring molecules 3-fold increase, read-out: AK-based Prestwick Library Screening Results, P. aeruginosa (fold increase in extracellular AK activity)), 1.2; in assay [6] (50 μM final drug concentration, cutoff for positive-scoring molecules 3-fold increase, read-out: AK-based Prestwick Library Screening Results, A. baumannii (fold increase in extracellular AK activity)) it was 1.3. Moreover, the fold induction at 50 µM in assay [7] (50 μM final drug concentration, cutoff for positive-scoring molecules 3-fold increase, read-out: AK-based Prestwick Library Screening Results, K. pneumoniae (fold increase in extracellular AK activity)) was determined as 1.2.

On to `NCc1ccc(S(N)(=O)=O)cc1` [Mafenide hydrochloride], for which the fold induction at 50 µM in assay [1] (setting [8]) was 0.6; in assay [2] (setting [9]), 1.2; in assay [3] (setting [10]), 0.6; in assay [4] (setting [11]), 0.6; in assay [5] (setting [12]), 0.5; in assay [6] (setting [13]) it was 0.5. Besides, the fold induction at 50 µM in assay [7] (setting [14]) is 0.5.

Turning to `CC(C)NCC(O)c1cc(O)cc(O)c1.CC(C)NCC(O)c1cc(O)cc(O)c1.O=S(=O)(O)O` (stereo not shown), the “AK-based Prestwick Library Screening Results, S. aureus (increase in extracellular AK activity)” value in assay [1] (planktonic S. aureus, 50 μM final drug concentration, cutoff for positive-scoring molecules 3-fold increase) is recorded as 0.6. Also, the “AK-based Prestwick Library Screening Results, E. faecium (increase in extracellular AK activity)” value in assay [2] (planktonic E. faecium, 50 μM final drug concentration, cutoff for positive-scoring molecules 3-fold increase) is on record as 0.9. Also, the “AK-based Prestwick Library Screening Results, E. cloacae (increase in extracellular AK activity)” value in assay [3] (planktonic E. cloacae, 50 μM final drug concentration, cutoff for positive-scoring molecules 3-fold increase) is given as 1.0. For the same compound, the “AK-based Prestwick Library Screening Results, E. coli (increase in extracellular AK activity)” value in assay [4] (planktonic E. coli, 50 μM final drug concentration, cutoff for positive-scoring molecules 3-fold increase) is reported as 1.0. Besides, the “AK-based Prestwick Library Screening Results, P. aeruginosa (increase in extracellular AK activity)” value in assay [5] (planktonic P. aeruginosa, 50 μM final drug concentration, cutoff for positive-scoring molecules 3-fold increase) was 0.9. Further, in assay [6] (planktonic A. baumannii, 50 μM final drug concentration, cutoff for positive-scoring molecules 3-fold increase), the “AK-based Prestwick Library Screening Results, A. baumannii (increase in extracellular AK activity)” value is 0.9. Moreover, in assay [7] (planktonic K. pneumoniae, 50 μM final drug concentration, cutoff for positive-scoring molecules 3-fold increase), the “AK-based Prestwick Library Screening Results, K. pneumoniae (increase in extracellular AK activity)” value turned out to be 0.7.

As to `Cc1ccc(S(=O)(=O)NC(=O)NN2CC3CCCC3C2)cc1` (stereo not shown) [Gliclazide], the fold induction at 50 µM in assay [1] (50 μM final drug concentration, planktonic, cutoff for positive 3-fold increase, read-out: AK-based Prestwick Library Screening Results, S. aureus (fold increase in extracellular AK activity)) came out at 1; in assay [2] (50 μM final drug concentration, planktonic, cutoff for positive 3-fold increase, read-out: AK-based Prestwick Library Screening Results, E. faecium (fold increase in extracellular AK activity)) it was 1; in assay [3] (50 μM final drug concentration, planktonic, cutoff for positive 3-fold increase, read-out: AK-based Prestwick Library Screening Results, E. cloacae (fold increase in extracellular AK activity)), 1.8; in assay [4] (50 μM final drug concentration, planktonic, cutoff for positive 3-fold increase, read-out: AK-based Prestwick Library Screening Results, E. coli (fold increase in extracellular AK activity)) it was 1.2; in assay [5] (50 μM final drug concentration, planktonic, cutoff for positive 3-fold increase, read-out: AK-based Prestwick Library Screening Results, P. aeruginosa (fold increase in extracellular AK activity)), 1.2; in assay [6] (50 μM final drug concentration, planktonic, cutoff for positive 3-fold increase, read-out: AK-based Prestwick Library Screening Results, A. baumannii (fold increase in extracellular AK activity)), 1.3. Also, the fold induction at 50 µM in assay [7] (50 μM final drug concentration, planktonic, cutoff for positive 3-fold increase, read-out: AK-based Prestwick Library Screening Results, K. pneumoniae (fold increase in extracellular AK activity)) came out at 1.2.

For `CCC(C)(C)C(=O)O[C@H]1C[C@@H](C)C=C2C=C[C@H](C)[C@H](CC[C@@H]3C[C@@H](O)CC(=O)O3)[C@H]21` [Simvastatin], the fold induction at 50 µM in assay [1] (read-out: AK-based Prestwick Library Screening Results, S. aureus (fold increase in extracellular AK activity)) was 0.4; in assay [2] (read-out: AK-based Prestwick Library Screening Results, E. faecium (fold increase in extracellular AK activity)), 1; in assay [3] (read-out: AK-based Prestwick Library Screening Results, E. cloacae (fold increase in extracellular AK activity)), 1.5; in assay [4] (read-out: AK-based Prestwick Library Screening Results, E. coli (fold increase in extracellular AK activity)), 1.6; in assay [5] (read-out: AK-based Prestwick Library Screening Results, P. aeruginosa (fold increase in extracellular AK activity)) it was 1.1; in assay [6] (read-out: AK-based Prestwick Library Screening Results, A. baumannii (fold increase in extracellular AK activity)) it was 2.5. Besides, the fold induction at 50 µM in assay [7] (read-out: AK-based Prestwick Library Screening Results, K. pneumoniae (fold increase in extracellular AK activity)) is 1.2.

As for `Cn1c(=O)c2c(ncn2CCO)n(C)c1=O` [Etofylline], the fold induction at 50 µM stood at 0.8 in assay [1] (setting [8]); 1 in assay [2] (setting [9]); 0.9 in assay [3] (setting [10]); 0.8 in assay [4] (setting [11]); 0.7 in assay [5] (setting [12]); 0.8 in assay [6] (setting [13]). Moreover, the fold induction at 50 µM in assay [7] (setting [14]) turned out to be 0.6.

As to `N[C@H]1CONC1=O` [(S)-(−)-Cycloserine], the “AK-based Prestwick library screening result, S. aureus (fold increase in extracellular AK activity)” value in assay [1] (planktonic S. aureus, 50 μM final drug concentration, positive cutoff 3-fold increase) turned out to be 1.1. Further, the “AK-based Prestwick library screening result, E. faecium (fold increase in extracellular AK activity)” value in assay [2] (planktonic E. faecium, 50 μM final drug concentration, positive cutoff 3-fold increase) was 1.1. Moreover, the “AK-based Prestwick library screening result, E. cloacae (fold increase in extracellular AK activity)” value in assay [3] (planktonic E. cloacae, 50 μM final drug concentration, positive cutoff 3-fold increase) is 1.6. The “AK-based Prestwick library screening result, E. coli (fold increase in extracellular AK activity)” value in assay [4] (planktonic E. coli, 50 μM final drug concentration, positive cutoff 3-fold increase) was 1.3. Also, the “AK-based Prestwick library screening result, P. aeruginosa (fold increase in extracellular AK activity)” value in assay [5] (planktonic P. aeruginosa, 50 μM final drug concentration, positive cutoff 3-fold increase) was 1.1. Besides, the “AK-based Prestwick library screening result, A. baumannii (fold increase in extracellular AK activity)” value in assay [6] (planktonic A. baumannii, 50 μM final drug concentration, positive cutoff 3-fold increase) was found to be 1.1. Further, in assay [7] (planktonic K. pneumoniae, 50 μM final drug concentration, positive cutoff 3-fold increase), the “AK-based Prestwick library screening result, K. pneumoniae (fold increase in extracellular AK activity)” value is 1.0.
